Assay results: patent US9051320B1, “Methods for the treatment of metabolic disorders by a selective small molecule autotaxin inhibitor” (PharmAkea, Inc., priority 2014, dated 2015)
Structures can show the parent of a compound that is named as a salt. Where two headings read alike, the source gives them in different places.

How the values were obtained:
[1] = test system: mice fed a normal diet or a high fat diet; conditions: cited from earlier work; for glucose tolerance: injection
[2] = test system: mice fed a high fat diet (HFD); assay: Glucose tolerance test in mice fed a high fat diet; format: in vivo, C57B16/J male mice; conditions: for total blood glucose AUC: after i.p. 1 g/kg glucose; for baseline glucose (fasting blood glucose): sodium salt
Description: C57B16/J male mice were fed a normal diet until 9-10 weeks of age. […] For determination of blood glucose, mice were administered test compound orally in 0.5% methocel once or twice daily for several days prior to the glucose challenge. Compounds were administered as a sodium salt. On the day of the glucose tolerance test (GTT) mice were fasted for 6-8 hours and a last dose of test compound administered orally 1-3 hours before the intraperitoneal (i.p.) injection of 1 g/kg D-glucose (Sigma). Blood from the tail vein was sampled before the glucose load (baseline glucose) and every 15-30 min over the next 120 min after the glucose challenge to monitor blood glucose concentration. Blood glucose was quantified using a glucose meter (Accu-Chek, Roche Diagnostics or AlphaTRAK, Abbott Animal Health) and plotted vs. time. Total blood glucose area under the curve (AUC) after the i.p. glucose challenge was calculated from the time plot using GraphPad Prism6.

human autotaxin (ATX) = biological target: T1, human autotaxin (ATX) (Homo sapiens, UniProt Q13822); assay: Human autotaxin assay (choline release from LPC, Hep3B conditioned media); format: biochemical; conditions: LPC 14:0 100 uM
T1 construct: ATX activity is assayed in concentrated conditioned media from Hep3B human hepatocellular carcinoma cells; endogenous in cells; host or cells: Hep3B human hepatocellular carcinoma cells (20-fold concentrated conditioned medium)
Description: ATX activity is assayed in concentrated conditioned media from Hep3B human hepatocellular carcinoma cells by measuring the amount of choline released from the substrate, lysophosphatidylcholine (LPC) as it is cleaved to LPA. Conditioned media is collected from confluent Hep3B cells and concentrated 20-fold using Centriprep-30 filter devices (Millipore).

[3] = chronic treatment, mice fed a high fat diet
[4] = 30 mg/kg oral twice daily for two days and once on the day of sampling
[5] = 30 mg/kg oral twice daily for two days prior to sampling and once on the day of sampling

Which “capacity of a muscle to oxidize glucose” value [1, 3] does the source give for `Cc1noc(-c2ccc(CSCCC(=O)O)cc2)c1NC(=O)OC(C)c1ccccc1Cl` (centres unmarked) [Ki16425] here?
The value was “increases”.

What about the fasting insulin levels [1, 3] of the same compound?
The fasting insulin levels was “improves”.

And the insulin sensitivity [1, 3]?
The insulin sensitivity was “improves”.

What about the liver glycogen storage [1, 3] of the same compound?
The liver glycogen storage was “increases”.

What about the glucose tolerance ([1]; mice fed a high fat diet) of the same compound?
The glucose tolerance was “does significantly improve”.

And the glucose tolerance ([1]; mice fed a normal diet)?
The glucose tolerance was “does not significantly improve”.

Which results are given for `CCn1cc(-n2c(C3CC3)c(Sc3cccc(C(=O)O)n3)c3ccc(Cl)c(F)c32)cn1` [Compound D, 6-((6-chloro-2-cyclopropyl-1-(1-ethyl-1H-pyrazol-4-yl)-7-fluoro-1H-indol-3-yl)thio)picolinic acid sodium salt]?
total blood glucose AUC [2, 4]: decrease; baseline glucose (fasting blood glucose) [2, 5]: decrease; IC50 (human autotaxin (ATX)): < 500 nM

Which “baseline glucose (fasting blood glucose)” value ([2]; 30 mg/kg oral once daily for 5 days prior to sampling) does the source give for `Cc1c(Sc2cccc(C(=O)O)c2F)c2ccc(Cl)c(F)c2n1CC(=O)N1CCC(O)(C(F)(F)F)C1` (single isomer, unassigned) [Compound E] here?
Its value is “decrease”.

For `CCCn1cc(-n2c(Cl)c(Sc3cccc(C(=O)O)c3F)c3ccc(Cl)c(F)c32)cn1` [Compound C, 3-((2,6-dichloro-7-fluoro-1-(1-propyl-1H-pyrazol-4-yl)-1H-indol-3-yl)thio)-2-fluorobenzoic acid], which “total blood glucose AUC” value ([2]; 15 mg/kg oral twice daily for two days and once on the day of sampling) is on record?
Its value is “decrease”.

And the “baseline glucose (fasting blood glucose)” value ([2]; 15 mg/kg oral twice daily for two days prior to sampling and once on the day of sampling)?
Its value is “decrease”.

With `O=C(O)CCN1C(=O)[C@@H]2Cc3c(n(Cc4ccc(F)cc4)c4ccccc34)CN2C1=O` [Compound A, (S)-3-(6-(4-fluorobenzyl)-1,3-dioxo-5,6,11,11a-tetrahydro-1H-imidazo [1′,5′:1,6]pyrido[3,4-b]indol-2(3H)-yl)propanoic acid] as the compound, how does the “total blood glucose AUC” value [2, 4] read?
Its value is “decrease”.

What about the “baseline glucose (fasting blood glucose)” value [2, 5] of the same compound?
The value was “decrease”.
